In brackets after ≈: the same amount, converted by molar mass. Where two headings read alike, the source gives them in different places. Marks after values point to notes of the source that are not given here.
Assays:
P. aeruginosa ATCC 27853 [1] = test system: P. aeruginosa ATCC 27853; parameters: method as in Cadelis et al. [16]; conditions: ref Cadelis et al. [16]; cited from earlier work
human red blood cells = experiment: Hemolytic assay; assay type: cell-based; conditions: mean (n = 2)
Description: Hemolysis assays were conducted according to previously reported protocols.

MRSA ATCC 43300 = experiment: Antimicrobial susceptibility (MIC), MRSA; assay type: cell-based; conditions: Staphylococcus aureus; MRSA ATCC 43300; mean (n = 2); read-out: MIC MRSA
Method in brief: (§1)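 MICs against E. coli ATCC 25922 and P. aeruginosa ATCC 27853 followed previously reported protocols. MRSA ATCC 43300 and C. albicans ATCC 90028 were tested by CO-ADD under its standard protocols.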

C. albicans ATCC 90028 [2] = test system: C. albicans ATCC 90028; parameters: method as in Cadelis et al. [16]; conditions: ref Cadelis et al. [16]; cited from earlier work
[3] = test system: HEK293 (human embryonic kidney cells); conditions: HEK293; ref Cadelis et al. [16]; read-out: Cyto. IC50 (concentration of compound at 50% cytotoxicity); cited from earlier work
S. aureus ATCC 25923 [4] = conditions: S. aureus ATCC 25923; ref Cadelis et al. [16]; cited from earlier work
E. coli ATCC 25922 [5] = test system: E. coli ATCC 25922; parameters: method as in Cadelis et al. [16]; conditions: ref Cadelis et al. [16]; cited from earlier work
P. aeruginosa ATCC 27853 [6] = conditions: doxycycline at 2 µg/mL (4.5 µM), P. aeruginosa ATCC 27853; ref Cadelis et al. [16]; cited from earlier work
P. aeruginosa ATCC 27853 [7] = experiment: Antimicrobial susceptibility (MIC), P. aeruginosa; assay type: cell-based; conditions: Pseudomonas aeruginosa, ATCC27853, mean (n = 3), read-out: MIC P. a
Method in brief: as §1

C. albicans ATCC 90028 [8] = experiment: Antifungal susceptibility (MIC), C. albicans; assay type: cell-based; conditions: Candida albicans, ATCC90028, mean (n = 2)
Method in brief: as §1

[9] = Cytotoxicity assay HEK293; assay type: cell-based, human; conditions: human, HEK293 cells, mean (n = 2), read-out: Cyto. IC50 (concentration of compound at 50% cytotoxicity)
Description: (§2) Cytotoxicity assays were conducted according to previously reported protocols.

[10] = test system: HEK293 (human embryonic kidney cells); experiment: Cytotoxicity assay HEK293; assay type: cell-based; conditions: mean (n = 2)
Description: as §2

P. aeruginosa ATCC 27853 [11] = experiment: Antibiotic potentiation (MIC of antibiotics in the presence of synergizing compounds), P. aeruginosa; assay type: cell-based, Pseudomonas aeruginosa; conditions: for Conc (µM) for Potentiation of doxycycline: concentration required to restore doxycycline activity at 2 µg/mL (4.5 µM) against P. aeruginosa ATCC 27853
E. coli ATCC 25922 [12] = experiment: Antimicrobial susceptibility (MIC), E. coli; assay type: cell-based; conditions: Escherichia coli, ATCC25922, mean (n = 3)
Method in brief: as §1

S. aureus ATCC 25923 [13] = experiment: Antimicrobial susceptibility (MIC), S. aureus; assay type: cell-based, Staphylococcus aureus; conditions: Staphylococcus aureus, ATCC25923; S. aureus ATCC 25923; mean (n = 3)
[14] = test system: Klebsiella pneumoniae ST258; experiment: Antibiotic potentiation, K. pneumoniae; assay type: cell-based; conditions: mean (n = 3)
Description: (§3) Antibiotic enhancing activities were determined according to previously reported protocols.

E. coli ATCC 25922 [15] = experiment: Antibiotic potentiation, E. coli; assay type: cell-based, Escherichia coli; conditions: mean (n = 3)
Description: as §3

A. baumannii AYE = experiment: Antibiotic potentiation, A. baumannii; assay type: cell-based, Acinetobacter baumannii; conditions: mean (n = 3)
Description: as §3

Structure (SMILES)	MIC P. a (P. aeruginosa ATCC 27853 [1])	Hem. HC10 (concentration of compound at 10% hemolytic activity) (human red blood cells)	MIC (MRSA ATCC 43300) [µM]	MIC C. a (C. albicans ATCC 90028 [2])	IC50 [3] [µM]	MIC S. a (S. aureus ATCC 25923 [4])	MIC E. c (E. coli ATCC 25922 [5])	Conc (µM) for Potentiation of doxycycline (P. aeruginosa ATCC 27853 [6])	MIC (P. aeruginosa ATCC 27853 [7]) [µM]	MIC (C. albicans ATCC 90028 [8]) [µM]	IC50 [9] [µM]	MIC (E. coli ATCC 25922 [12]) [µM]	MIC (S. aureus ATCC 25923 [13]) [µM]	further results
O=C(NCCCNCCCCNCCCNC(=O)C(=O)c1c[nH]c2ccccc12)C(=O)c1c[nH]c2ccccc12 [Compound 2]	>100 ^h µM	>41 µM	41.4 (≈ 22.5 µg/mL)	>41.4 ^h µM	> 41	>100 ^h µM	>100 ^h µM	–	–	–	–	–	–	–
O=C(NCCCNCCCCNCCCNC(=O)C(=O)c1c[nH]c2ccc(Br)cc12)C(=O)c1c[nH]c2ccc(Br)cc12 [Compound 3]	50 ^h µM	>34 µM	4.32 (≈ 3.03 µg/mL)	>34.4 ^h µM	14	3.125 ^h µM	25 ^h µM	3.125 ^b µM	–	–	–	–	–	–
COc1ccc2[nH]cc(C(=O)C(=O)NCCCNCCCCNCCCNC(=O)C(=O)c3c[nH]c4ccc(OC)cc34)c2c1 [Compound 4]	>200 ^h µM	>38 µM	38.4 (≈ 23.2 µg/mL)	>38.4 ^h µM	> 38	100 ^h µM	>200 ^h µM	12.5 ^b µM	–	–	–	–	–	–
Cc1ccc2[nH]cc(C(=O)C(=O)NCCCNCCCCNCCCNC(=O)C(=O)c3c[nH]c4ccc(C)cc34)c2c1 [Compound 5]	100 ^h µM	>40 µM	20 (≈ 11.5 µg/mL)	>40.0 ^h µM	> 40	25 ^h µM	200 ^h µM	6.25 ^b µM	–	–	–	–	–	–
O=C(NCCCNCCCCNCCCNC(=O)C(=O)c1c[nH]c2c(F)cccc12)C(=O)c1c[nH]c2c(F)cccc12 [Compound 6]	200 ^h µM	>40 µM	19.8 (≈ 11.5 µg/mL)	>39.6 ^h µM	19	25 ^h µM	200 ^h µM	3.125 ^b µM	–	–	–	–	–	–
COc1cccc2c(C(=O)C(=O)NCCCNCCCCNCCCNC(=O)C(=O)c3c[nH]c4c(OC)cccc34)c[nH]c12 [Compound 7]	>200 ^h µM	>38 µM	38.4 (≈ 23.2 µg/mL)	38.4 ^h µM	27	15 ^h µM	>200 ^h µM	3.75 ^b µM	–	–	–	–	–	–
Cc1cccc2c(C(=O)C(=O)NCCCNCCCCNCCCNC(=O)C(=O)c3c[nH]c4c(C)cccc34)c[nH]c12 [Compound 8]	>200 ^h µM	>40 µM	20 (≈ 11.5 µg/mL)	>40.0 ^h µM	> 40	25 ^h µM	>200 ^h µM	6.25 ^b µM	–	–	–	–	–	–
COc1ccc2[nH]cc(C(=O)C(=O)NCCCNCCCCCCNCCCNC(=O)C(=O)c3c[nH]c4ccc(OC)cc34)c2c1.O=C(O)C(F)(F)F.O=C(O)C(F)(F)F [Compound 19a, N^1,N^6-Bis(3-(2-(5-methoxy-1H-indol-3-yl)-2-oxoacetamido)propyl)hexane-1,6-diaminium 2,2,2-trifluoroacetate]	–	–	> 37	–	–	–	–	–	> 200	> 37	> 37	> 200	29	Cyto. IC50 (concentration of compound at 50% cytotoxicity) [10]: non-toxic; Concentration (µM) for Potentiation of chloramphenicol (P. aeruginosa ATCC 27853 [11]; P. aeruginosa ATCC 27853, chloramphenicol 2 µg/mL, mean (n = 3)): 58 µM; Concentration (µM) for Potentiation of minocycline (P. aeruginosa ATCC 27853 [11]; P. aeruginosa ATCC 27853, minocycline 2 µg/mL, mean (n = 3)): 14.5 µM; Concentration (µM) for Potentiation, no antibiotic (P. aeruginosa ATCC 27853 [11]; P. aeruginosa ATCC 27853, no antibiotic, mean (n = 3)): >200 µM; Conc (µM) for Potentiation of doxycycline (P. aeruginosa ATCC 27853 [11]): 7.3 µM
O=C(NCCCNCCCCCCNCCCNC(=O)C(=O)c1c[nH]c2c(F)cccc12)C(=O)c1c[nH]c2c(F)cccc12.O=C(O)C(F)(F)F.O=C(O)C(F)(F)F [Compound 21a, N^1,N^6-Bis(3-(2-(7-fluoro-1H-indol-3-yl)-2-oxoacetamido)propyl)hexane-1,6-diaminium 2,2,2-trifluoroacetate]	–	>38 ^e µM	19.1	–	–	–	–	–	240	> 38	12	240	7.5	Concentration (µM) for Potentiation of chloramphenicol ([14]; chloramphenicol 2 µg/mL): >200 µM; Concentration (µM) for Potentiation of doxycycline ([14]; doxycycline 2 µg/mL): 200 µM; Concentration (µM) for Potentiation of erythromycin ([14]; erythromycin 2 µg/mL): >200 µM; Concentration (µM) for Potentiation of nalidixic acid ([14]; nalidixic acid 2 µg/mL): >200 µM; Concentration (µM) for Potentiation of erythromycin (P. aeruginosa ATCC 27853 [11]; P. aeruginosa ATCC 27853, erythromycin 2 µg/mL, mean (n = 3)): 100 µM; Concentration (µM) for Potentiation of chloramphenicol (E. coli ATCC 25922 [15]; chloramphenicol 2 µg/mL): >200 µM; Concentration (µM) for Potentiation of doxycycline (E. coli ATCC 25922 [15]; doxycycline 2 µg/mL): 1.56 µM; Concentration (µM) for Potentiation of erythromycin (E. coli ATCC 25922 [15]; erythromycin 2 µg/mL): 200 µM; Concentration (µM) for Potentiation of nalidixic acid (E. coli ATCC 25922 [15]; nalidixic acid 2 µg/mL): 200 µM; Concentration (µM) for Potentiation of chloramphenicol (A. baumannii AYE; chloramphenicol 2 µg/mL): 200 µM; Concentration (µM) for Potentiation of doxycycline (A. baumannii AYE; doxycycline 2 µg/mL): 12.5 µM; Concentration (µM) for Potentiation of erythromycin (A. baumannii AYE; erythromycin 2 µg/mL): 100 µM; Concentration (µM) for Potentiation of nalidixic acid (A. baumannii AYE; nalidixic acid 2 µg/mL): 200 µM; Concentration (µM) for Potentiation, no antibiotic (A. baumannii AYE; no antibiotic): 100 µM
Cc1cccc2c(C(=O)C(=O)NCCCNCCCCCCNCCCNC(=O)C(=O)c3c[nH]c4c(C)cccc34)c[nH]c12.O=C(O)C(F)(F)F.O=C(O)C(F)(F)F [Compound 23a, N^1,N^6-Bis(3-(2-(7-methyl-1H-indol-3-yl)-2-oxoacetamido)propyl)hexane-1,6-diaminium 2,2,2-trifluoroacetate]	–	>39 µM	≤ 0.3	–	–	–	–	–	> 240	> 39	> 39	60	30.2	Conc (µM) for Potentiation of doxycycline (P. aeruginosa ATCC 27853 [11]): 60 µM
Cc1cccc2c(C(=O)C(=O)NCCCNCCCCCCCCCCCCNCCCNC(=O)C(=O)c3c[nH]c4c(C)cccc34)c[nH]c12.O=C(O)C(F)(F)F.O=C(O)C(F)(F)F [Compound 23e, N^1,N^12-Bis(3-(2-(7-methyl-1H-indol-3-yl)-2-oxoacetamido)propyl)dodecane-1,12-diaminium 2,2,2-trifluoroacetate]	–	8.4 µM	≤ 0.27	–	–	–	–	–	> 220	≤ 0.27	> 35	13.7	6.85	Conc (µM) for Potentiation of doxycycline (P. aeruginosa ATCC 27853 [11]): 220 µM
